Values quoted from earlier work in patent US20060122197A1, “Amido compounds and their use as pharmaceuticals” (priority 2004, published 2006).

Biological target: T1, 11βHSD1 in the eye (Homo sapiens, UniProt P28845)
T1 construct: host or cells: eye of healthy volunteers (in vivo)
Conditions: healthy volunteers; after seven days of carbenoxolone treatment

T1 sequence (P28845 whole entry): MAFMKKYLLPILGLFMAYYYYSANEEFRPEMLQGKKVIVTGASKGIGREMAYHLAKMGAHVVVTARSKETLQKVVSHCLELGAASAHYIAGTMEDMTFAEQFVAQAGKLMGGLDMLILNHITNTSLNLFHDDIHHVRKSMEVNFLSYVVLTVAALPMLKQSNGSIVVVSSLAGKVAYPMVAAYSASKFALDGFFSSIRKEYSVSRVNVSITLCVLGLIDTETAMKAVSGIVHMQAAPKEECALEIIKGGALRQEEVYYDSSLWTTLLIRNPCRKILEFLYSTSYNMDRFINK

## CC1(C)[C@@H](OC(=O)CCC(=O)O)CC[C@]2(C)[C@H]3C(=O)C=C4[C@@H]5C[C@@](C)(C(=O)O)CC[C@]5(C)CC[C@@]4(C)[C@]3(C)CC[C@@H]12 [carbenoxolone]
  IOP was reduced by: 18%
